This is an account of results in article PMC10967458, “A FtsZ Inhibitor That Can Utilize Siderophore-Ferric Iron Uptake Transporter Systems for Activity against Gram-Negative Bacterial Pathogens” (Antibiotics, 2024).

By Kd is commonly meant the free concentration of one partner at which half of the binding sites on the other are occupied at equilibrium, for simple one-to-one binding. A lower Kd goes with a tighter complex.

The target of this test is K. pneumoniae FtsZ (KpFtsZ) (Klebsiella pneumoniae, UniProt A0A0H3GRR0). As to the kind of experiment: fluorescence anisotropy titration of intrinsically fluorescent RUP4 ([…]) with purified KpFtsZ, […] °C, […] fit. The format is binding.
K. pneumoniae FtsZ (KpFtsZ), sequence (A0A0H3GRR0 entry or part of it): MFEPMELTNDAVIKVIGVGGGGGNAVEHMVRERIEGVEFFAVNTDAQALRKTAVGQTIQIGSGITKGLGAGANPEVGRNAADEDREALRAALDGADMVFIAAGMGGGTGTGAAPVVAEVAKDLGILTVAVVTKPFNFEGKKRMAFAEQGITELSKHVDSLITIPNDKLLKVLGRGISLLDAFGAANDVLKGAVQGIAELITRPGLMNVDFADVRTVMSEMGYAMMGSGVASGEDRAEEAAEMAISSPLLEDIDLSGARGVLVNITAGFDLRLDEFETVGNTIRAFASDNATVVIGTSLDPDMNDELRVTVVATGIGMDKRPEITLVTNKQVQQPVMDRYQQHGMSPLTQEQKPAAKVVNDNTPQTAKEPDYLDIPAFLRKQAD

For the compound `NC(=O)c1c(F)ccc(OC(CCNC(=O)c2ccc(O)c(O)c2Cl)c2nc(-c3ccc(C(F)(F)F)cc3)c(Br)o2)c1F` (stereo not shown) [RUP4], the Kd is 49 ± 5 µM.
